# Measurements taken from ChEMBL document CHEMBL5463722, “Data for DCP probe BI-5524” (2023).
# Active and inactive are the calls of the source. The calls are words filed in the database; no cut-off is given here.
# How the values were obtained:
# Rattus norvegicus [1] = species: Rattus norvegicus; assay: KV channel Eurofins-Cerep binding assay; design: ligand concentration 0.01 nM; conditions: Compound concentration 10.0 uM
# [2] = target: Adenosine receptor A2a (Homo sapiens) (UniProt P29274); assay: A2A Eurofins-Cerep binding assay; design: ligand concentration 6 nM
# Adenosine receptor A2a (Homo sapiens), sequence (P29274 whole entry): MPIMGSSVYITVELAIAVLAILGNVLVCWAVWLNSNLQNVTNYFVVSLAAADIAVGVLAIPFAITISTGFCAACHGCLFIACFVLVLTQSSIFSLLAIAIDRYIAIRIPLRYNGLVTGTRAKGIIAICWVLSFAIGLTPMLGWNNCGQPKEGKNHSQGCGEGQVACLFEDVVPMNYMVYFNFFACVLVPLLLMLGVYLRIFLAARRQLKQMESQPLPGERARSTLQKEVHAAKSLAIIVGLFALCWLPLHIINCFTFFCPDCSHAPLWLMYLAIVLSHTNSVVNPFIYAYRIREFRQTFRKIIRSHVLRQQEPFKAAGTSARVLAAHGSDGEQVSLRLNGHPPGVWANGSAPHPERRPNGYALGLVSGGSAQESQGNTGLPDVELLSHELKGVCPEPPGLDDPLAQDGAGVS
# Neutrophil elastase [3] = target: T1, Neutrophil elastase (Homo sapiens, UniProt P08246); assay: ELANE inhibitor assay (human). (Biochemical assay using purified commercial human ELANE and a fluorescent peptide substrate).
# T1 sequence (P08246 whole entry): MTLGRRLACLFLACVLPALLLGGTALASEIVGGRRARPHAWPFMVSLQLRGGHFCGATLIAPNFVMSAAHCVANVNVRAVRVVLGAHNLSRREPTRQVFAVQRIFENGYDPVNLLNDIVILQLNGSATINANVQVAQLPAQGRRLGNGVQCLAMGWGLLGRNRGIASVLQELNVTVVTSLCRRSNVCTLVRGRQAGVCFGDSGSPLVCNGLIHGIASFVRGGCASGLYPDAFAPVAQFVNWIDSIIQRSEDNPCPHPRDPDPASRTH
# [4] = target: D(2) dopamine receptor (Homo sapiens) (UniProt P14416); assay: Agonist activity in the Eurofins Cerep SafetyScreen44 (BI) against D2SH_AGON by Scintillation counting (Cerep_1322); conditions: Compound concentration 10.0 uM
# D(2) dopamine receptor (Homo sapiens), sequence (P14416 whole entry): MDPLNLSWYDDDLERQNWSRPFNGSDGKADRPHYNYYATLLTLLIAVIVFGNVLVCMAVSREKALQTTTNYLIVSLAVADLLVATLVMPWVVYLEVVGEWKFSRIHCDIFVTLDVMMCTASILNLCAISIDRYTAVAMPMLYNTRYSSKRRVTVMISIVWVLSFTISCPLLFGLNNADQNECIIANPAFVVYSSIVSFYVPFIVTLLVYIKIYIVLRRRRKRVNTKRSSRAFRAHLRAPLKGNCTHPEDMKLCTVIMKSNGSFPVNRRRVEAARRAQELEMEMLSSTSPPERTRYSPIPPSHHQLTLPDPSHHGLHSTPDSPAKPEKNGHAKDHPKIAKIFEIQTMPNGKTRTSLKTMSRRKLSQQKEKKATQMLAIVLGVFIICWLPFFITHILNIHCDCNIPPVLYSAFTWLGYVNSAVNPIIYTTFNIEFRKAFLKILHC
# [5] = target: Beta-1 adrenergic receptor (Homo sapiens) (UniProt P08588); assay: beta 1 Eurofins-Cerep binding assay; design: ligand concentration 0.3 nM
# Beta-1 adrenergic receptor (Homo sapiens), sequence (P08588 whole entry, looked up): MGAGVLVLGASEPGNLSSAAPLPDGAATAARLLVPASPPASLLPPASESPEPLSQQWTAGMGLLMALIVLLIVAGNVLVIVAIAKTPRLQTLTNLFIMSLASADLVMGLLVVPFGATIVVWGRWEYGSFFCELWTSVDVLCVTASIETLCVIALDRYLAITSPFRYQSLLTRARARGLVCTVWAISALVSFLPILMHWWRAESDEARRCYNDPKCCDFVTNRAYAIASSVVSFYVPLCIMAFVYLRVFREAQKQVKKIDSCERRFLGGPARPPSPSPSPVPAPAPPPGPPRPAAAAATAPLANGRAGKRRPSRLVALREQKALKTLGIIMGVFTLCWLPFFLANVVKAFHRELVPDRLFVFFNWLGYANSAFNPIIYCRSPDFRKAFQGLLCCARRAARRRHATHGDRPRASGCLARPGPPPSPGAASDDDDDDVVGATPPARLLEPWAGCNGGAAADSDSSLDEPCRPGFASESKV
# [6] = target: 5-hydroxytryptamine receptor 2A (Homo sapiens) (UniProt P28223); assay: Agonist activity in the Eurofins Cerep SafetyScreen44 (BI) against 5HT2AH_AGON by Scintillation counting (Cerep_471); conditions: Compound concentration 10.0 uM
# 5-hydroxytryptamine receptor 2A (Homo sapiens), sequence (P28223 whole entry): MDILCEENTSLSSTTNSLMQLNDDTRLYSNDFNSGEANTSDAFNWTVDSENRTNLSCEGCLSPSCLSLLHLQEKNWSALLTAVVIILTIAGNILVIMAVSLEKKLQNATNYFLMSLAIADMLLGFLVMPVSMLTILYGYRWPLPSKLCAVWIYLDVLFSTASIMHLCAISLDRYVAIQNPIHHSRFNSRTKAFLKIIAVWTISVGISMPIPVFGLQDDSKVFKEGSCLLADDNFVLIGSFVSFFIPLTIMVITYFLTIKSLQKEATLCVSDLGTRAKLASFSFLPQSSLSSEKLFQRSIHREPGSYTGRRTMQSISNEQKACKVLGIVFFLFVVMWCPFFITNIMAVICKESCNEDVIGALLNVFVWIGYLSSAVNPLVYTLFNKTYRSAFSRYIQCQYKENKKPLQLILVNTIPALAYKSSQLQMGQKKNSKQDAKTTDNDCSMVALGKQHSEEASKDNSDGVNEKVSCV
# [7] = target: 5-hydroxytryptamine receptor 3A (Homo sapiens) (UniProt P46098); assay: 5-HT3 Eurofins-Cerep binding assay; design: ligand concentration 0.5 nM; conditions: Compound concentration 10.0 uM
# [8] = target: 5-hydroxytryptamine receptor 1B (Homo sapiens) (UniProt P28222); assay: 5-HT1B Eurofins-Cerep binding assay; design: ligand concentration 1 nM; conditions: Compound concentration 10.0 uM
# [9] = target: Mu-type opioid receptor (Homo sapiens) (UniProt P35372); assay: mu (MOP) Eurofins-Cerep binding assay; design: ligand concentration 0.5 nM; conditions: Compound concentration 10.0 uM
# Mu-type opioid receptor (Homo sapiens), sequence (P35372 whole entry): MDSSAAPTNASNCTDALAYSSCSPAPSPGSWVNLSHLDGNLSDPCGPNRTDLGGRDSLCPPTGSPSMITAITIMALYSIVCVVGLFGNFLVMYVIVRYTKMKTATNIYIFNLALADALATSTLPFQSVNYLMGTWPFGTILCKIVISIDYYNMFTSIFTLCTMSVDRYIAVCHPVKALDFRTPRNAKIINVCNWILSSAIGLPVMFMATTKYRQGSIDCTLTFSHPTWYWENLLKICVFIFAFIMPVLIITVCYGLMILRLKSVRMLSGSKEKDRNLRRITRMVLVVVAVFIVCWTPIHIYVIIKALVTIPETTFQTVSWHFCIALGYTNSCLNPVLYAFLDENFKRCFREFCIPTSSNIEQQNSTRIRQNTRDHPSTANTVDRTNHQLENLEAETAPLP
# [10] = target: Glucocorticoid receptor (Homo sapiens) (UniProt P04150); assay: GR Eurofins-Cerep binding assay; conditions: Compound concentration 10.0 uM
# Glucocorticoid receptor (Homo sapiens), sequence (P04150 whole entry): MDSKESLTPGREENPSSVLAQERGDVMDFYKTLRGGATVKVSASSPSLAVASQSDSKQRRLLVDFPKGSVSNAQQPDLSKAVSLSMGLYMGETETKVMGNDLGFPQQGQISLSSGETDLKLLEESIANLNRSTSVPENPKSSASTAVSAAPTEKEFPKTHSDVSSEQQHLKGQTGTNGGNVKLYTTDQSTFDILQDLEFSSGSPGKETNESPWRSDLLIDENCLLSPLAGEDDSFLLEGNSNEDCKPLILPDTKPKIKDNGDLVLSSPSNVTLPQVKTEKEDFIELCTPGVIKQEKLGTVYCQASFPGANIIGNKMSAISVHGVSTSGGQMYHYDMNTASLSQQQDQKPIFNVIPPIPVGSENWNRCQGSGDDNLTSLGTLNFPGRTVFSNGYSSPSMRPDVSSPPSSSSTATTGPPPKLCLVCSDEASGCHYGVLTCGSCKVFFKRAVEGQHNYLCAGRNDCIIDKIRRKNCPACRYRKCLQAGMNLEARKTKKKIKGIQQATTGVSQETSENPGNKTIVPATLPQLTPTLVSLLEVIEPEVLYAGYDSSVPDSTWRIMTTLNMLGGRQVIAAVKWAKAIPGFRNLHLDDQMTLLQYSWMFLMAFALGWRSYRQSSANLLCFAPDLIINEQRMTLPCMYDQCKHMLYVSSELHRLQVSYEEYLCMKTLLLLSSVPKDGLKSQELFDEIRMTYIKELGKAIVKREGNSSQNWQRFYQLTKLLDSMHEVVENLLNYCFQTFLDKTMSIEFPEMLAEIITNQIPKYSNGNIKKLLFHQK
# [11] = target: D(1A) dopamine receptor (Homo sapiens) (UniProt P21728); assay: D1 Eurofins-Cerep binding assay; design: ligand concentration 0.3 nM; conditions: Compound concentration 10.0 uM
# Rattus norvegicus [12] = species: Rattus norvegicus; assay: Activity against BZD/CENTR/R in the Eurofins Cerep SafetyScreen44 (BI) by Radioactive Assay (Cerep_28); type: protein-complex assay
# [13] = target: Muscarinic acetylcholine receptor M2 (Homo sapiens) (UniProt P08172); assay: M2 Eurofins-Cerep binding assay; design: ligand concentration 2 nM; conditions: Compound concentration 10.0 uM
# [14] = target: Sodium-dependent dopamine transporter (Homo sapiens) (UniProt Q01959); assay: dopamine transporter Eurofins-Cerep binding assay; conditions: Compound concentration 10.0 uM
# Sodium-dependent dopamine transporter (Homo sapiens), sequence (Q01959 whole entry): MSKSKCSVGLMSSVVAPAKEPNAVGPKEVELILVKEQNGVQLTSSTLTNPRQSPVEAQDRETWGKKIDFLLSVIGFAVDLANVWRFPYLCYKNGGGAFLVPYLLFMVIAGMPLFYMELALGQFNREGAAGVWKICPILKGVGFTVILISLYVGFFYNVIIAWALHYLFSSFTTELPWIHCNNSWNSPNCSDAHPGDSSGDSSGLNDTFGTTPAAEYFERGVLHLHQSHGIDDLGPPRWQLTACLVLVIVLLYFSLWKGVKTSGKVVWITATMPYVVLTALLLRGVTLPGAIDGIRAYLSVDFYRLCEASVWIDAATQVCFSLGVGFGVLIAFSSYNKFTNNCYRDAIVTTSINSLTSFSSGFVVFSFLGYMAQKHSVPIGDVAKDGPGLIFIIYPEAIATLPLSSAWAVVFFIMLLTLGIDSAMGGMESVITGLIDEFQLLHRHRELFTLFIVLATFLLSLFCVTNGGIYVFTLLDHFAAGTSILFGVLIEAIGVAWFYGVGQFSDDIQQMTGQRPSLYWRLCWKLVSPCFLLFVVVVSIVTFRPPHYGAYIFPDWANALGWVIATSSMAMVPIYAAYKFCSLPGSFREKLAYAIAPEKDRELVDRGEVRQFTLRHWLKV
# Neutrophil elastase [15] = target: T1, Neutrophil elastase; assay: Inhibition of zymosan-stimulated ELANE activity in human plasma
# [16] = target: Muscarinic acetylcholine receptor M1 (Homo sapiens) (UniProt P11229); assay: M1 Eurofins-Cerep binding assay; design: ligand concentration 2 nM; conditions: Compound concentration 10.0 uM
# Caspase-9 (Homo sapiens) = Caspase-9 (Homo sapiens) (UniProt P55211); conditions: Compound concentration 1.0 uM
# Description: % Enzyme Activity of Caspase 9 in the Reaction Biology protease panel at 10.0 µM
# [17] = target: Beta-2 adrenergic receptor (Homo sapiens) (UniProt P07550); assay: beta 2 Eurofins-Cerep binding assay
# Beta-2 adrenergic receptor (Homo sapiens), sequence (P07550 whole entry, looked up): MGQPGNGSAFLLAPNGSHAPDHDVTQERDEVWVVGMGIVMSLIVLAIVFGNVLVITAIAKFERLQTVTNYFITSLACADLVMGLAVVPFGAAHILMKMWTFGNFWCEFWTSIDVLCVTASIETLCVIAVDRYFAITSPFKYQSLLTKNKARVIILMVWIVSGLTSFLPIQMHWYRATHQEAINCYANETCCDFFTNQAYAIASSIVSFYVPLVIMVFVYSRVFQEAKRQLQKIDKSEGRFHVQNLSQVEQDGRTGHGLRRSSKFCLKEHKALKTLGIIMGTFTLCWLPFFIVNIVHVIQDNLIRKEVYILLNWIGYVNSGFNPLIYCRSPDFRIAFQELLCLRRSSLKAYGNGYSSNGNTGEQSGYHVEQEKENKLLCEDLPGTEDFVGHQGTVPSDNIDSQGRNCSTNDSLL
# [18] = target: 5-hydroxytryptamine receptor 2B (Homo sapiens) (UniProt P41595); assay: 5-HT2B Eurofins-Cerep binding assay; conditions: Compound concentration 10.0 uM
# 5-hydroxytryptamine receptor 2B (Homo sapiens), sequence (P41595 whole entry): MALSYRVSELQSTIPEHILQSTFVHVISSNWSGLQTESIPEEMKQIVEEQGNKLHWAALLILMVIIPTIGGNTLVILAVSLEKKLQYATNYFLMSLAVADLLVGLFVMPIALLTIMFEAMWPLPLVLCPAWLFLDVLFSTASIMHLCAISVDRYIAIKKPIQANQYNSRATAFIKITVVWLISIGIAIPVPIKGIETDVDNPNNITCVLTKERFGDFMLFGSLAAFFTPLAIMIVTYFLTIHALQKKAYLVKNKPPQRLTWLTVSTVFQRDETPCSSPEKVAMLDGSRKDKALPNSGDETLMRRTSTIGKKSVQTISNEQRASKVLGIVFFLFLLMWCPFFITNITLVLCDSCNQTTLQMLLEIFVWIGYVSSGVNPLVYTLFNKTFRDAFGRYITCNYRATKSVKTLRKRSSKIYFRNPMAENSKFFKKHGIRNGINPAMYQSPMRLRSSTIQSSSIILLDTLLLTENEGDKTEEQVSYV
# [19] = target: Delta-type opioid receptor (Homo sapiens) (UniProt P41143); assay: delta (DOP) Eurofins-Cerep binding assay; design: ligand concentration 0.5 nM; conditions: Compound concentration 10.0 uM
# [20] = target: Endothelin-1 receptor (Homo sapiens) (UniProt P25101); assay: ETA Eurofins-Cerep binding assay; design: ligand concentration 0.03 nM; conditions: Compound concentration 10.0 uM
# [21] = target: Histamine H1 receptor (Homo sapiens) (UniProt P35367); assay: H1 Eurofins-Cerep binding assay; design: ligand concentration 1 nM; conditions: Compound concentration 10.0 uM
# Histamine H1 receptor (Homo sapiens), sequence (P35367 whole entry): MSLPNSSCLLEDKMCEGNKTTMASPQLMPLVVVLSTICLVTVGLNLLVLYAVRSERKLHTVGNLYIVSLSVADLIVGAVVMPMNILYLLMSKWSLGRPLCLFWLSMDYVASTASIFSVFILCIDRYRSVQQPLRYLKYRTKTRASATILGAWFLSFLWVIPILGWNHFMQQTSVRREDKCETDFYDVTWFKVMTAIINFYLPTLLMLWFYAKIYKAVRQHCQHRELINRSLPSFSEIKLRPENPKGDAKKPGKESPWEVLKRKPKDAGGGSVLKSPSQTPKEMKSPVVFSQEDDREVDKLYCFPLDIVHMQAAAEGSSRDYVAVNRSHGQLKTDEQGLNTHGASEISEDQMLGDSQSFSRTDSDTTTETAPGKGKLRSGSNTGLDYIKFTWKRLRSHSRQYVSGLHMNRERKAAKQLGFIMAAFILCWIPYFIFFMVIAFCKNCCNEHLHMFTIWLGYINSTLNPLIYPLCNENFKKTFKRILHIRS
# [22] = target: Histamine H2 receptor (Homo sapiens) (UniProt P25021); assay: H2 Eurofins-Cerep binding assay; design: ligand concentration 0.075 nM; conditions: Compound concentration 10.0 uM
# [23] = target: T2, Cholecystokinin receptor type A (Homo sapiens) (UniProt P32238); assay: CCK1 (CCKA) Eurofins-Cerep binding assay; design: ligand concentration 0.08 nM
# T2 sequence (whole entry): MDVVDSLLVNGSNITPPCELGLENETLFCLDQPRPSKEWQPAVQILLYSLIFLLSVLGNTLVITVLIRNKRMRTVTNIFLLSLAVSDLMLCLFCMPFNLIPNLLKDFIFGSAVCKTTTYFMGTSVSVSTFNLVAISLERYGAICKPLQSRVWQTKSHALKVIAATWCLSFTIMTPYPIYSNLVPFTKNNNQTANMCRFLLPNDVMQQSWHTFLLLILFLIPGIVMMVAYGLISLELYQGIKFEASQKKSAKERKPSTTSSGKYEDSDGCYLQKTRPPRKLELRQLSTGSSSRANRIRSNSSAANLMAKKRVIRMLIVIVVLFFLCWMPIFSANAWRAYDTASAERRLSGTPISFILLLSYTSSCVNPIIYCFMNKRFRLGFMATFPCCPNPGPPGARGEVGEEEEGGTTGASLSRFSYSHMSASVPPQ
# [24] = target: Sodium-dependent noradrenaline transporter (Homo sapiens) (UniProt P23975); assay: norepinephrine transporter Eurofins-Cerep binding assay; design: ligand concentration 1 nM; conditions: Compound concentration 10.0 uM
# [25] = target: 5-hydroxytryptamine receptor 1A (Homo sapiens) (UniProt P08908); assay: 5-HT1A Eurofins-Cerep binding assay; design: ligand concentration 0.5 nM; conditions: Compound concentration 10.0 uM
# [26] = target: Prostaglandin G/H synthase 2 (Homo sapiens) (UniProt P35354); assay: Inhibitor of COX-2 in the Eurofins Cerep SafetyScreen44 (BI) by Fluorimetry (Cerep_4186); conditions: Compound concentration 10.0 uM
# [27] = target: Muscarinic acetylcholine receptor M3 (Homo sapiens) (UniProt P20309); assay: M3 Eurofins-Cerep binding assay; design: ligand concentration 0.2 nM; conditions: Compound concentration 10.0 uM
# [28] = target: Vasopressin V1a receptor (Homo sapiens) (UniProt P37288); assay: V1a Eurofins-Cerep binding assay; design: ligand concentration 0.3 nM; conditions: Compound concentration 10.0 uM
# [29] = target: Adrenergic receptor alpha-1 (Rattus norvegicus) (UniProt P15823+P23944+P43140); assay: Inhibitor of ALPHA1/NS/R in the Eurofins SafetyScreen44 (BI) by Radioactive Assay (Old_Cerep_5); type: protein assay
# [30] = target: D(4) dopamine receptor (Homo sapiens) (UniProt P21917); assay: D4.4 Eurofins-Cerep binding assay; conditions: Compound concentration 10.0 uM
# [31] = target: Gastrin/cholecystokinin type B receptor (Homo sapiens) (UniProt P32239); assay: Activity against CCKB/H in the Eurofins SafetyScreen44 (BI) by Radioactive Assay (Old_Cerep_13); conditions: Compound concentration 10.0 uM
# [32] = target: Cannabinoid receptor 1 (Homo sapiens) (UniProt P21554); assay: Activity against CB1/CENTR/H in the Eurofins SafetyScreen44 (BI) by Radioactive Assay (Old_Cerep_12)
# [33] = target: Bombesin receptor (Rattus norvegicus) (UniProt P52500+P24053+Q8K418); assay: Activity against BOMBESIN/NS in the Eurofins SafetyScreen44 (BI) by Radioactive Assay (Old_Cerep_9); type: protein assay
# [34] = target: C-C chemokine receptor type 1 (Homo sapiens) (UniProt P32246); assay: Activity against CCR1/H in the Eurofins SafetyScreen44 (BI) (Old_Cerep_14); conditions: Compound concentration 10.0 uM
# [35] = target: Neuropeptide Y receptor type 1 (Homo sapiens) (UniProt P25929); assay: Y1 Eurofins-Cerep binding assay; design: ligand concentration 0.025 nM; conditions: Compound concentration 10.0 uM
smiles,measurement,setting,value
CC(C)(O)CNC(=O)N1C(=O)N(c2cccc(C(F)(F)F)c2)C2=C(C(=O)CC2)[C@@H]1c1ccc(C#N)cc1,residual activity,Rattus norvegicus [1],101%
same,residual activity,[2]; Compound concentration 10.0 uM,109%
same,IC50,Neutrophil elastase [3],41 nM (not active)
same,residual activity,[4],99%
same,residual activity,[5]; Compound concentration 10.0 uM,89%
same,residual activity,[6],111%
same,residual activity,[7],81%
same,residual activity,[8],86%
same,residual activity,[9],104%
same,residual activity,[10],96%
same,residual activity,[11],100%
same,residual activity,Rattus norvegicus [12]; Compound concentration 10.0 uM,101%
same,residual activity,[13],103%
same,residual activity,[14],98%
same,IC50,Neutrophil elastase [15],492 nM (not active)
same,residual activity,[16],114%
same,"% Enzyme Activity (relative to DMSO controls, average n=2)",Caspase-9 (Homo sapiens),92.6%
same,residual activity,[17]; Compound concentration 10.0 uM,101%
same,residual activity,[18],97%
same,residual activity,[19],100%
same,residual activity,[20],95%
same,residual activity,[21],101%
same,residual activity,[22],105%
same,residual activity,[23]; Compound concentration 10.0 uM,97%
same,residual activity,[24],95%
same,residual activity,[25],91%
same,residual activity,[26],101%
same,residual activity,[27],95%
same,residual activity,[28],99%
CC(C)(O)CNC(=O)N1C(=O)N(c2cccc(C(F)(F)F)c2)C2=C(C(=O)CC2)[C@H]1c1ccc(C#N)cc1,residual activity,Rattus norvegicus [1],102%
same,residual activity,[2]; Compound concentration 10.0 uM,100%
same,residual activity,[2]; Compound concentration 30.0 uM,83%
same,IC50,Neutrophil elastase [3],0.5 nM (active)
same,residual activity,[4],89%
same,residual activity,[29]; Compound concentration 10.0 uM,97%
same,residual activity,[29]; Compound concentration 30.0 uM,103%
same,residual activity,[30],98%
same,residual activity,[5]; Compound concentration 10.0 uM,100%
same,residual activity,[5]; Compound concentration 30.0 uM,100%
same,residual activity,[31],106%
same,residual activity,[6],69%
same,residual activity,[7],108%
same,residual activity,[9],82%
same,residual activity,[10],107%
same,residual activity,[11],96%
same,residual activity,Rattus norvegicus [12]; Compound concentration 10.0 uM,119%
same,residual activity,Rattus norvegicus [12]; Compound concentration 30.0 uM,116%
same,residual activity,[32]; Compound concentration 10.0 uM,87%
same,residual activity,[32]; Compound concentration 30.0 uM,93%
same,residual activity,[13],121%
same,residual activity,[14],110%
same,IC50,Neutrophil elastase [15],1.2 nM (active)
same,residual activity,[16],103%
same,"% Enzyme Activity (relative to DMSO controls, average n=2)",Caspase-9 (Homo sapiens),98.8%
same,residual activity,[17]; Compound concentration 10.0 uM,87%
same,residual activity,[17]; Compound concentration 30.0 uM,92%
same,residual activity,[18],130%
same,residual activity,[19],101%
same,residual activity,[20],99%
same,residual activity,[21],108%
same,residual activity,[22],114%
same,residual activity,[23]; Compound concentration 10.0 uM,89%
same,residual activity,[23]; Compound concentration 30.0 uM,89%
same,residual activity,[24],98%
same,residual activity,[25],72%
same,residual activity,[27],84%
same,residual activity,[33]; Compound concentration 10.0 uM,129%
same,residual activity,[33]; Compound concentration 30.0 uM,118%
same,residual activity,[34],89%
same,residual activity,[28],102%
same,residual activity,[35],107%
